The values that follow come from patent US8877769B2, “Heteroaryl-substituted urea modulators of fatty acid amide hydrolase” (Janssen Pharmaceutica NV, priority 2008, dated 2014).

pIC50: −log10 of the molar value.

For one experiment, the target named is T1, Rat FAAH (Rattus norvegicus, UniProt P97612).
T1 construct: expressed in transfected cells
T1 sequence (P97612 1-579): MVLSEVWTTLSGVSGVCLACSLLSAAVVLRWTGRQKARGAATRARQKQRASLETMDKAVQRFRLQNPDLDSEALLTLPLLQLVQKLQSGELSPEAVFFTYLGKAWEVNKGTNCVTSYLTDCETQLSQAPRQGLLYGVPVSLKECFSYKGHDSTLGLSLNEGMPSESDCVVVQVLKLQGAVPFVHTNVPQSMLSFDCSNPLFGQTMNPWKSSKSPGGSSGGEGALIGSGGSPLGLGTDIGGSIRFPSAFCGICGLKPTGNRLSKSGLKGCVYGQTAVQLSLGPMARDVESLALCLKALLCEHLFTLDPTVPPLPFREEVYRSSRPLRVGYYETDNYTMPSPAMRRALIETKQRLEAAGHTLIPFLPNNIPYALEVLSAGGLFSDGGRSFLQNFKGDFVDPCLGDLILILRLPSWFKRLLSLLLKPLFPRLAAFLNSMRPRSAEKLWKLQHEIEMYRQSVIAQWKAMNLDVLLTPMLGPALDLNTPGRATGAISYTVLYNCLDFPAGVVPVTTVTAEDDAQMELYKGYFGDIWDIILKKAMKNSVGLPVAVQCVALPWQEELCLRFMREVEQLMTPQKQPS
Kind of experiment: Assay Method 2: FAAH assay, 3H-anandamide hydrolysis in cell homogenate. Type of experiment: biochemical. Particulars: average of results obtained, > value = solubility limit or highest concentration tested. The method, then: A. Transfection of Cells with Rat FAAH
The assay mixture consisted of 50 μL of the cell homogenate, 10 μL of the test compound, and 40 μL of anandamide [1-^3H-ethanolamine] (^3H-AEA, Perkin-Elmer, 10.3 Ci/mmol), which was added last, for a final tracer concentration of 80 nM. The reaction mixture was incubated at rt for 1 h. During the incubation, 96-well Multiscreen filter plates (catalog number MAFCNOB50; Millipore, Bedford, Mass., USA) were loaded with 25 μL of activated charcoal (Multiscreen column loader, catalog number MACL09625, Millipore) and washed once with 100 μL of MeOH. […] After the 1 h incubation, 60 μL of the reaction mixture were transferred to the charcoal plates, which were then assembled on top of the DYNEX plates using Centrifuge Alignment Frames (catalog number MACF09604, Millipore). The unbound labeled ethanolamine was centrifuged through to the bottom plate (5 min at 2000 rpm), which was preloaded with the scintillant, as described above. The plates were sealed and left at rt for 1 h before counting on a Hewlett Packard TopCount.

The target in the next experiment is T2, FAAH (Homo sapiens, UniProt O00519).
T2 sequence (O00519 1-579): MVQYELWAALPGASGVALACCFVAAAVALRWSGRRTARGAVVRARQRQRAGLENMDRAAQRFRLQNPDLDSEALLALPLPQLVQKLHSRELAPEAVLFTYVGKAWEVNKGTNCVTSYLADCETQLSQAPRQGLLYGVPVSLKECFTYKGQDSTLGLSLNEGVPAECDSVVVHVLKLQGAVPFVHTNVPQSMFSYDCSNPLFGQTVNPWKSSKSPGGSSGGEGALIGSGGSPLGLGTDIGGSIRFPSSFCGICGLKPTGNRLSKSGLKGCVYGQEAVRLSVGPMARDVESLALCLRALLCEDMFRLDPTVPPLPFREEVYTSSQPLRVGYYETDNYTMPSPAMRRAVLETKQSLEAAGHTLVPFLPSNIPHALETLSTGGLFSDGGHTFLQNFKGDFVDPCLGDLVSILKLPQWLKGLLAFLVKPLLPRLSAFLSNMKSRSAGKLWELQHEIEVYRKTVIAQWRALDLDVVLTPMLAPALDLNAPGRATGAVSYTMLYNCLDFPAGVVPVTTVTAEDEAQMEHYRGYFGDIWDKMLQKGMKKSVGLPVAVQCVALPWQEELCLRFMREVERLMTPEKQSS
The experiment is described as follows: Assay Method 1: FAAH assay, 3H-anandamide hydrolysis in cell homogenate.

As to `O=C(Nc1noc2ncccc12)N1CCN(Cc2cnc3ccccc3c2)CC1` [Example 10, 4-Quinolin-3-ylmethyl-piperazine-1-carboxylic acid isoxazolo[5,4-b]pyridin-3-ylamide], the negative logarithm of the IC50 (pIC50) against Rat FAAH and against FAAH was less than 5.00 throughout.
With `O=C(Nc1noc2ncccc12)N1CCN(Cc2ccc(Br)cc2)CC1` [Example 11, 4-(4-Bromo-benzyl)-piperazine-1-carboxylic acid isoxazolo[5,4-b]pyridin-3-ylamide], the pIC50 on Rat FAAH and at FAAH was less than 5.00 in each case.
As for `O=C(Nc1noc2ncccc12)N1CCN(Cc2ccc3ccccc3n2)CC1` [Example 12, 4-Quinolin-2-ylmethyl-piperazine-1-carboxylic acid isoxazolo[5,4-b]pyridin-3-ylamide], the pIC50 at Rat FAAH is less than 5.00; against FAAH it was 5.59.
In the case of `O=C(Nc1noc2ncccc12)N1CCN(Cc2ccc(Cl)c(Cl)c2)CC1` [Example 13, 4-(3,4-Dichloro-benzyl)-piperazine-1-carboxylic acid isoxazolo[5,4-b]pyridin-3-ylamide], the pIC50 on Rat FAAH is 5.52; against FAAH, 6.34.
For `O=C(Nc1noc2ncccc12)N1CCN(Cc2cccc(Oc3ccc(F)c(C(F)(F)F)c3)c2)CC1` [Example 14, 4-[3-(4-Fluoro-3-trifluoromethyl-phenoxy)-benzyl]-piperazine-1-carboxylic acid isoxazolo[5,4-b]pyridin-3-ylamide] the same measures were 5.40 and 6.33.
For `O=C(Nc1noc2ncccc12)N1CCN(Cc2cccc(Oc3cccc(C(F)(F)F)c3)c2)CC1` [Example 15, 4-[3-(3-Trifluoromethyl-phenoxy)-benzyl]-piperazine-1-carboxylic acid isoxazolo[5,4-b]pyridin-3-ylamide] the same measures were 6.07 and 6.52.
`N#Cc1cccc(Oc2cccc(CN3CCN(C(=O)Nc4noc5ncccc45)CC3)c2)c1` [Example 16, 4-[3-(3-Cyano-phenoxy)-benzyl]-piperazine-1-carboxylic acid isoxazolo[5,4-b]pyridin-3-ylamide]: the pIC50 was 5.22 at Rat FAAH and 5.70 against FAAH.
For `O=C(Nc1noc2ncccc12)N1CCN(Cc2cccc(Oc3ccc(SC(F)(F)F)cc3)c2)CC1` [Example 17, 4-[3-(4-Trifluoromethylsulfanyl-phenoxy)-benzyl]-piperazine-1-carboxylic acid isoxazolo[5,4-b]pyridin-3-ylamide] the same measures were 6.74 and 6.33.
With `O=C(Nc1noc2ncccc12)N1CCN(Cc2cccc(Oc3ccc4ncccc4c3)c2)CC1` [Example 18, 4-[3-(Quinolin-6-yloxy)-benzyl]-piperazine-1-carboxylic acid isoxazolo[5,4-b]pyridin-3-ylamide], the pIC50 on Rat FAAH is less than 5.00; at FAAH, 5.22.
For `N#Cc1ccc(Oc2cccc(CN3CCN(C(=O)Nc4noc5ncccc45)CC3)c2)cc1C(F)(F)F` [Example 19, 4-[3-(4-Cyano-3-trifluoromethyl-phenoxy)-benzyl]-piperazine-1-carboxylic acid isoxazolo[5,4-b]pyridin-3-ylamide] the same measures were less than 5.00 and less than 5.00.
Regarding `O=C(Nc1noc2ncccc12)N1CCN(Cc2cccc(OCc3ccccc3)c2)CC1` [Example 21, 4-(3-Benzyloxy-benzyl)-piperazine-1-carboxylic acid isoxazolo[5,4-b]pyridin-3-ylamide], the pIC50 is less than 5.00 on Rat FAAH and 5.70 against FAAH.
`O=C(Nc1noc2ncccc12)N1CCN(Cc2cccc(Oc3ccc(S(=O)(=O)C(F)(F)F)cc3)c2)CC1` [Example 22, 4-[3-(4-Trifluoromethanesulfonyl-phenoxy)-benzyl]-piperazine-1-carboxylic acid isoxazolo[5,4-b]pyridin-3-ylamide]: the pIC50 against Rat FAAH and against FAAH was less than 5.00 throughout.
As for `O=C(Nc1noc2ncccc12)N1CCN(Cc2cccc(Oc3cccc(Cl)c3)c2)CC1` [Example 23, 4-[3-(3-Chloro-phenoxy)-benzyl]-piperazine-1-carboxylic acid isoxazolo[5,4-b]pyridin-3-ylamide], the pIC50 was 6.52 against Rat FAAH and 6.66 on FAAH.
For `O=C(Nc1noc2ncccc12)N1CCN(Cc2cccc(Oc3ccc(Br)cc3)c2)CC1` [Example 24, 4-[3-(4-Bromo-phenoxy)-benzyl]-piperazine-1-carboxylic acid isoxazolo[5,4-b]pyridin-3-ylamide] the same measures were 7.28 and 7.47.
On the same counts, the results for `O=C(Nc1noc2ncccc12)N1CCN(Cc2ccc(Br)c(Br)c2)CC1` [Example 25, 4-(3,4-Dibromo-benzyl)-piperazine-1-carboxylic acid isoxazolo[5,4-b]pyridin-3-ylamide] are 5.52 and 6.43.
Turning to `O=C(Nc1noc2ncccc12)N1CCN(Cc2cccc(Oc3ccc(F)c(F)c3)c2)CC1` [Example 26, 4-[3-(3,4-Difluoro-phenoxy)-benzyl]-piperazine-1-carboxylic acid isoxazolo[5,4-b]pyridin-3-ylamide], the negative-log IC50 (pIC50) against Rat FAAH was less than 5.00; at FAAH, 5.49.
On the same counts, the results for `O=C(Nc1noc2ncccc12)N1CCN(Cc2cccc(Oc3ccccc3)c2)CC1` [Example 27, 4-(3-Phenoxy-benzyl)-piperazine-1-carboxylic acid isoxazolo[5,4-b]pyridin-3-ylamide] are less than 5.00 and less than 5.00.
In the case of `O=C(Nc1noc2ncccc12)N1CCN(Cc2cc3ccccc3s2)CC1` [Example 28, 4-Benzo[b]thiophen-2-ylmethyl-piperazine-1-carboxylic acid isoxazolo[5,4-b]pyridin-3-ylamide], the negative-log IC50 (pIC50) was less than 5.00 at Rat FAAH and 5.22 against FAAH.
For `O=C(Nc1noc2ncccc12)N1CCN(Cc2cccc(Oc3ccc(C(F)(F)F)cc3)c2)CC1` [Example 30, 4-[3-(4-Trifluoromethyl-phenoxy)-benzyl]-piperazine-1-carboxylic acid isoxazolo[5,4-b]pyridin-3-ylamide], the negative logarithm of the IC50 (pIC50) at Rat FAAH is 6.37; at FAAH, 6.47.
As for `O=C(Nc1noc2ncccc12)N1CCN(Cc2cc3ccccc3o2)CC1` [Example 31, 4-Benzofuran-2-ylmethyl-piperazine-1-carboxylic acid isoxazolo[5,4-b]pyridin-3-ylamide], the results for the pIC50 at Rat FAAH and on FAAH were less than 5.00 and 5.52, respectively.
On the same counts, the results for `N#Cc1ccc(Oc2cccc(CN3CCN(C(=O)Nc4noc5ncccc45)CC3)c2)cc1` [Example 32, 4-[3-(4-Cyano-phenoxy)-benzyl]-piperazine-1-carboxylic acid isoxazolo[5,4-b]pyridin-3-ylamide] are 5.64 and 6.52.
On the same counts, the results for `O=C(Nc1noc2ncccc12)N1CCN(Cc2cccc(Oc3ccc(OCC(F)(F)F)cc3)c2)CC1` [Example 33, 4-{3-[4-(2,2,2-Trifluoro-ethoxy)-phenoxy]-benzyl}-piperazine-1-carboxylic acid isoxazolo[5,4-b]pyridin-3-ylamide] are 6.70 and 6.70.
On to `O=C(Nc1noc2ncccc12)N1CCN(Cc2cccc(Oc3ccc4c(c3)OC(F)(F)O4)c2)CC1` [Example 34, 4-[3-(2,2-Difluoro-benzo[1,3]dioxol-5-yloxy)-benzyl]-piperazine-1-carboxylic acid isoxazolo[5,4-b]pyridin-3-ylamide], for which the values for the negative logarithm of the IC50 (pIC50) on Rat FAAH and against FAAH were less than 6.40 and less than 7.22, respectively.
